From patent publication US10800782B2, “Inhibitors of cellular metabolic processes” (Agios Pharmaceuticals, Inc., priority 2016, dated 2020) come the findings set out here.

T1 sequence (P31153 whole entry): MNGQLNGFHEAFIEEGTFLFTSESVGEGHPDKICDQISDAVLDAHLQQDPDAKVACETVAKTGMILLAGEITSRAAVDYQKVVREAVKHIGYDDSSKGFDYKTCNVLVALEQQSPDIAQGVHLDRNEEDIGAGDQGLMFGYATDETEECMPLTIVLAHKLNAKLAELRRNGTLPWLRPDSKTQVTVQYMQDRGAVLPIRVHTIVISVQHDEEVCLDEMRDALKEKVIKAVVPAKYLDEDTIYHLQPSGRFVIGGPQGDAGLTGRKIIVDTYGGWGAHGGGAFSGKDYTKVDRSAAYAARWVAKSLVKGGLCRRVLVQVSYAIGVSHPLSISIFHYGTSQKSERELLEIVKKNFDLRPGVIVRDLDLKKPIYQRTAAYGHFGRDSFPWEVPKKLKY

The experiment concerns the target T1, MAT2A (Homo sapiens, UniProt P31153).
T1 construct: His6; made in house; host or cells: SF9 insect cells
Briefly: MAT2A biochemical assay (colorimetric inorganic phosphate detection, PiColorLock). Conditions: recombinant His6-tagged MAT2A 1 μg/ml; 60 minutes preincubation at 25° C.; L-Met 80 μM, ATP 100 μM; 60 minutes reaction; read at 623 nm; read-out: MAT2A Inhibition Score. Put shortly: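 Colorimetric malachite green readout of phosphate released when MAT2A turns over L-Met and ATP, after 60 min at room temperature. Enzyme: SF9-expressed His6-tagged MAT2A at 1 μg/ml. Buffer: Tris pH 8.0, 50 mM KCl, 15 mM MgCl2, 300 uM EDTA, 0.005% BSA. Compounds tested as ten-point three-fold dilutions.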
In the case of `O=c1c(-c2ccc3ncccc3c2)c[nH]c2c(-c3ccccc3)c(-c3ccccc3)nn12` [Compound 244, 2,3-diphenyl-6-(quinolin-6-yl)pyrazolo[1,5-a]pyrimidin-7(4H)-one], the IC50 was below 100 nM.
With `Cc1[nH]c2c(-c3ccccc3)c(-c3ccccc3)nn2c(=O)c1-c1ccc2ncncc2c1` [Compound 245, 5-methyl-2,3-diphenyl-6-(quinazolin-6-yl)pyrazolo[1,5-a]pyrimidin-7(4H)-one], the IC50 was below 100 nM.
The same measure for `Cc1[nH]c2c(-c3ccccc3)c(-c3ccccc3)nn2c(=O)c1-c1ccc2nc(C(=O)O)ccc2c1` [Compound 246, 6-(5-methyl-7-oxo-2,3-diphenyl-4,7-dihydropyrazolo[1,5-a]pyrimidin-6-yl) quinoline-2-carboxylic Acid]: below 100 nM; for `Cc1nc2ccc(-c3c(C)[nH]c4c(-c5ccccc5)c(-c5ccccc5)nn4c3=O)cc2cc1O` [Compound 247, 6-(3-hydroxy-2-methylquinolin-6-yl)-5-methyl-2,3-diphenylpyrazolo[1,5-a]pyrimidin-7(4H)-one]: below 100 nM; for `COc1ccc(-c2c(CO)n(C)c3c(-c4ccccc4)c(-c4ccccc4)nn3c2=O)cc1` [Compound 249, 5-(hydroxymethyl)-6-(4-methoxyphenyl)-4-methyl-2,3-diphenylpyrazolo[1,5-a]pyrimidin-7(4H)-one]: below 100 nM.
On to `Cc1[nH]c2c(-c3ccccc3)c(-c3ccc(N)cc3)nn2c(=O)c1-c1ccc2ncccc2c1` [Compound 250, 2-(4-aminophenyl)-5-methyl-3-phenyl-6-(quinolin-6-yl)pyrazolo[1,5-a]pyrimidin-7(4H)-one], for which the IC50 is below 100 nM.
The same measure for `Cc1[nH]c2c(-c3ccccc3)c(-c3ccc([N+](=O)[O-])cc3)nn2c(=O)c1-c1ccc2ncccc2c1` [Compound 251, 5-methyl-2-(4-nitrophenyl)-3-phenyl-6-(quinolin-6-yl)pyrazolo[1,5-a]pyrimidin-7(4H)-one]: 1000 to 10000 nM; for `Cc1[nH]c2c(-c3ccccc3)c(-c3cc[nH]c3)nn2c(=O)c1-c1ccc2ncccc2c1` [Compound 252, 5-methyl-3-phenyl-2-(1H-pyrrol-3-yl)-6-(quinolin-6-yl)pyrazolo[1,5-a]pyrimidin-7(4H)-one]: below 100 nM.
With `Cc1[nH]c2c(-c3ccccc3)c(-c3ccccc3)nn2c(=O)c1-c1ccc2nc(CN)sc2c1` [Compound 253, 6-(2-(aminomethyl)benzo[d]thiazol-6-yl)-5-methyl-2,3-diphenylpyrazolo[1,5-a]pyrimidin-7(4H)-one] the figure was below 100 nM; with `COc1cnc2ccc(-c3c(C)[nH]c4c(-c5ccccc5)c(-c5ccccc5)nn4c3=O)cc2n1` [Compound 254, 6-(3-methoxy-quinoxalin-6-yl)-5-methyl-2,3-diphenylpyrazolo[1,5-a]-pyrimidin-7(4H)-one], below 100 nM; with `Cc1[nH]c2c(N3CCCCC3)c(-c3ccccc3)nn2c(=O)c1-c1ccc2nccnc2c1` [Compound 255, 5-methyl-2-phenyl-3-(piperidin-1-yl)-6-(quinoxalin-6-yl)pyrazolo[1,5-a]pyrimidin-7(4H)-one], below 100 nM.
The same measure for `Cc1[nH]c2c(-c3ccccc3)c(-c3ccccc3)nn2c(=O)c1-c1ccc2ncn(C)c2c1` [Compound 256, 5-methyl-6-(1-methyl-1H-benzo[d]imidazol-6-yl)-2,3-diphenylpyrazolo[1,5-a]pyrimidin-7(4H)-one]: below 100 nM.
For `Cc1[nH]c2c(-c3ccccc3)c(-c3ccccc3)nn2c(=O)c1-c1ccc2c(c1)NC(=O)CO2` [Compound 257, 6-(5-methyl-7-oxo-2,3-diphenyl-4,7-dihydropyrazolo[1,5-a]pyrimidin-6-yl)-2H-benzo[b][1,4]oxazin-3 (4H)-one], the IC50 was below 100 nM.
With `Cc1[nH]c2c(-c3ccccc3)c(-c3ccccc3)nn2c(=O)c1-c1ccc2c(c1)NCCO2` [Compound 258, 6-(3,4-dihydro-2H-benzo[b][1,4]oxazin-6-yl)-5-methyl-2,3-diphenylpyrazolo[1,5-a]pyrimidin-7(4H)-one], the IC50 was below 100 nM.
The same measure for `COc1cc(-c2c(C)[nH]c3c(-c4ccccc4)c(-c4ccccc4)nn3c2=O)ccc1O` [Compound 259, 6-(4-hydroxy-3-methoxyphenyl)-5-methyl-2,3-diphenylpyrazolo[1,5-a]pyrimidin-7(4H)-one]: below 100 nM; for `Cc1[nH]c2c(-c3ccccc3)c(-c3ccccc3)nn2c(=O)c1-c1ccc(O)c(O)c1` [Compound 260, 6-(3,4-dihydroxyphenyl)-5-methyl-2,3-diphenylpyrazolo[1,5-a]pyrimidin-7(4H)-one]: below 100 nM.
For the compound `Cc1[nH]c2c(-c3ccccc3)c(-c3ccccc3)nn2c(=O)c1-c1ccc(O)c(OCCO)c1` [Compound 261, 6-(4-hydroxy-3-(2-hydroxyethoxy)phenyl)-5-methyl-2,3-diphenylpyrazolo[1,5-a]pyrimidin-7(4H)-one], the IC50 is below 100 nM.
For `Cc1[nH]c2c(N3CCCCC3)c(-c3ccccc3)nn2c(=O)c1-c1ccc(O)cc1` [Compound 262, 6-(4-hydroxyphenyl)-5-methyl-2-phenyl-3-(piperidin-1-yl)pyrazolo[1,5-a]pyrimidin-7(4H)-one], the IC50 was below 100 nM.
The same measure for `O=C(NCc1[nH]c2c(-c3ccccc3)c(-c3ccccc3)nn2c(=O)c1-c1ccc2ncccc2c1)C(F)(F)F` [Compound 263, 2,2,2-trifluoro-N-((7-oxo-2,3-diphenyl-6-(quinolin-6-yl)-4,7-dihydropyrazolo[1,5-a]pyrimidin-5-yl)methyl)acetamide]: below 100 nM; for `COc1ccc(-c2c(CNc3nc[nH]n3)[nH]c3c(-c4ccccc4)c(-c4ccccc4)nn3c2=O)cc1` [Compound 264, 5-(((1H-1,2,4-triazol-3-yl)amino)methyl)-6-(4-methoxyphenyl)-2,3-diphenylpyrazolo[1,5-a]pyrimidin-7(4H)-one]: below 100 nM.
With `Cc1[nH]c2c(C3=CCC(F)(F)CC3)c(-c3ccccc3)nn2c(=O)c1-c1ccc2ncccc2c1` [Compound 265, 3-(4,4-difluorocyclohex-1-en-1-yl)-5-methyl-2-phenyl-6-(quinolin-6-yl)pyrazolo[1,5-a]pyrimidin-7(4H)-one] the figure was below 100 nM; with `Cc1[nH]c2c(N3CCCCC3)c(-c3ccccc3)nn2c(=O)c1-c1cn[nH]c1` [Compound 266, 5-methyl-2-phenyl-3-(piperidin-1-yl)-6-(1H-pyrazol-4-yl)pyrazolo[1,5-a]pyrimidin-7(4H)-one], below 100 nM.
The same measure for `Cc1[nH]c2c(N3CCCCC3)c(-c3ccccc3)nn2c(=O)c1-c1ccc2[nH]cnc2c1` [Compound 267, 6-(1H-benzo[d]imidazol-5-yl)-5-methyl-2-phenyl-3-(piperidin-1-yl)pyrazolo[1,5-a]pyrimidin-7(4H)-one]: below 100 nM.
As to `Cc1[nH]c2c(N3CCCCC3)c(-c3ccccc3)nn2c(=O)c1-c1ccc2[nH]c(N)nc2c1` [Compound 268, 6-(2-amino-1H-benzo[d]imidazol-5-yl)-5-methyl-2-phenyl-3-(piperidin-1-yl)pyrazolo[1,5-a]pyrimidin-7(4H)-one], the IC50 was below 100 nM.
As for `COc1ccc(-c2c(C)n(C)c3c(N4CCCCC4)c(-c4ccccc4)nn3c2=O)cc1` [Compound 269, 6-(4-methoxyphenyl)-4,5-dimethyl-2-phenyl-3-(piperidin-1-yl)pyrazolo[1,5-a]pyrimidin-7(4H)-one], the IC50 is below 100 nM.
In the case of `Cc1c(-c2ccc(O)cc2)c(=O)n2nc(-c3ccccc3)c(-c3cccs3)c2n1C` [Compound 271, 6-(4-hydroxyphenyl)-4,5-dimethyl-2-phenyl-3-(thiophen-2-yl)pyrazolo[1,5-a]pyrimidin-7(4H)-one], the IC50 is below 100 nM.
As for `COc1ccc(-c2c(C)[nH]c3c(N4CCC(F)(F)C4)c(-c4ccccc4)nn3c2=O)cc1` [Compound 272, 3-(3,3-difluoropyrrolidin-1-yl)-6-(4-methoxyphenyl)-5-methyl-2-phenylpyrazolo[1,5-a]pyrimidin-7(4H)-one], the IC50 was below 100 nM.
In the case of `O=c1c(-c2ccc(O)cc2)c(O)[nH]c2c(-c3ccccc3)c(-c3ccccc3)nn12` [Compound 273, 5-hydroxy-6-(4-hydroxyphenyl)-2,3-diphenylpyrazolo[1,5-a]pyrimidin-7(4H)-one], the IC50 is below 100 nM.
The same measure for `COc1ccc(-c2c(O)n(C)c3c(-c4ccccc4)c(-c4ccccc4)nn3c2=O)cc1` [Compound 274, 5-hydroxy-6-(4-methoxyphenyl)-4-methyl-2,3-diphenylpyrazolo[1,5-a]pyrimidin-7(4H)-one]: below 100 nM; for `O=c1c(-c2ccc3ncccc3c2)c(O)[nH]c2c(-c3ccccc3)c(-c3ccccc3)nn12` [Compound 275, 5-hydroxy-2,3-diphenyl-6-(quinolin-6-yl)pyrazolo[1,5-a]pyrimidin-7(4H)-one]: below 100 nM.
With `Nc1[nH]c2c(-c3ccccc3)c(-c3ccccc3)nn2c(=O)c1-c1ccc(O)cc1` [Compound 276, 5-amino-6-(4-hydroxyphenyl)-2,3-diphenylpyrazolo[1,5-a]pyrimidin-7(4H)-one] the figure was below 100 nM; with `Cc1[nH]c2c(C3CCCCC3)c(-c3ccccc3)nn2c(=O)c1-c1ccc2ncccc2c1` [Compound 277, 3-cyclohexyl-5-methyl-2-phenyl-6-(quinolin-6-yl)pyrazolo[1,5-a]pyrimidin-7(4H)-one], below 100 nM.
With `CNCc1[nH]c2c(-c3ccccc3)c(-c3ccccc3)nn2c(=O)c1-c1ccc2ncccc2c1` [Compound 278, 5-((methylamino)methyl)-2,3-diphenyl-6-(quinolin-6-yl)pyrazolo[1,5-a]pyrimidin-7(4H)-one] the figure was below 100 nM; with `COc1ccc(-c2c(O)[nH]c3c(C4=CCCCC4)c(-c4ccccc4)nn3c2=O)cc1` [Compound 279, 3-(cyclohex-1-en-1-yl)-5-hydroxy-6-(4-methoxyphenyl)-2-phenylpyrazolo[1,5-a]pyrimidin-7(4H)-one], below 100 nM.
